Patent publication US20210308117A1, “METHODS OF TREATING VIRAL INFECTIONS USING INHIBITORS OF NUCLEOTIDE SYNTHESIS PATHWAYS” (priority 2020, published 2021)
pEC50: −log10 of the molar value. Like-named read-outs stand apart in the source and are kept apart here.

Tests used:
[1] = weekly rapid iv injection; previously treated patients with advanced lung cancer; cited from earlier work
SARS-CoV-2 = experiment: microbe, parasite or virus in culture; type: cell-based
H1-HeLa cells [2] = conditions: human, 3 days
Vero E6 cells = conditions: remdesivir co-treated with brequinar
[3] = cited from earlier work
RNA virus = experiment: Daily dosing of brequinar in a subject infected with an RNA virus; type: in vivo; conditions: once per day for five consecutive days; first peak in brequinar level
Experimental: The mechanism by which administration of a DHODH inhibitor according to a daily dosing regimen inhibits viral replication is illustrated below. […] Throughout the course of the dosing regimen, levels of intracellular pyrimidines, such as uridine, and viral replication are measured.

[4] = human, in vivo
[5] = in vivo, iv; cited from earlier work
[6] = test system: 16HBE (human bronchial epithelial); conditions: cited from earlier work
[7] = Adverse events in subjects receiving brequinar; conditions: i.v. once a week
Vero76 (monkey kidney) = conditions: cited from earlier work
[8] = test system: HeLa (human cervical tumor); conditions: cited from earlier work
H1-HeLa cells [9] = experiment: Cytotoxicity XTT assay in H1-HeLa cells; conditions: read-out: TC50, 3 days
[10] = test system: HuH7 (human hepatocellular carcinoma); conditions: cited from earlier work
Vero (monkey kidney) = conditions: cited from earlier work
[11] = test system: Primary Human Fibroblasts; conditions: cited from earlier work
clinical = conditions: human, in vivo, po
[12] = 1-h i.v. infusion every 3 weeks

Compound: NC(=O)c1[nH]nc([C@@H]2O[C@H](CO)[C@@H](O)[C@H]2O)c1O [pyrazofurin, 5-[(2S,3R,4S,5R)-3,4-dihydroxy-5-(hydroxymethyl)oxolan-2-yl]-4-hydroxy-1H-pyrazole-3-carboxamide]
- therapeutic value [1]: little therapeutic value as a single agent

Compound: CC(C)C[C@H](NC(=O)OCc1ccccc1)C(=O)N[C@@H](CC1CCNC1=O)C(O)S(=O)(=O)[O-].[Na+] (stereo partly drawn) [GC-376]
- SI50 (Selective Index 50 = CC50/IC50) (SARS-CoV-2): >24.5

Compound: CCOC(=O)/C=C/[C@H](C[C@@H]1CCNC1=O)NC(=O)[C@@H](CC(=O)[C@@H](NC(=O)c1cc(C)on1)C(C)C)Cc1ccc(F)cc1 [Rupintrivir]
- CC50 (H1-HeLa cells [2]): > 100 nM

Compound: CCC(CC)COC(=O)[C@H](C)N[P@](=O)(OC[C@H]1O[C@@](C#N)(c2ccc3c(N)ncnn23)[C@H](O)[C@@H]1O)Oc1ccccc1 [remdesivir]
- cytotoxicity by the co-treatment (Vero E6 cells): No enhanced cytotoxicity
- fold increase in activity of remdesivir (SARS-CoV-2): > 6.8 fold
- E(Max) (SARS-CoV-2; SARS-CoV-2, Vero E6, maximum CPE-protection effect): 100

Compound: Cc1c(-c2ccc(-c3ccccc3F)cc2)nc2ccc(F)cc2c1C(=O)O [brequinar sodium]
- recommended dose for phase II studies, good-risk patients [3, 12]: 1,800 mg/m^2
- recommended dose for phase II studies, poor-risk patients [3, 12]: 1,200 mg/m^2
- maximum tolerable dose, good-risk patients ([3]; i.v. infusion every 3 weeks): 2,250 mg/m^2
- maximum tolerable dose, poor-risk patients ([3]; i.v. infusion every 3 weeks): 1,500 mg/m^2

Compound: NC(=O)c1ncn([C@@H]2O[C@H](CO)[C@@H](O)[C@H]2O)n1 [ribavirin]
- pEC50 (SARS-CoV-2; Severe acute respiratory syndrome coronavirus 2, Vero C1008, SARS-CoV-2, Vero E6, MOI 0.05, read-out: EC50 (50% of the maximum CPE-protection effect of the compound)): < 4.30

Compound: Cc1c(-c2ccc(-c3ccccc3F)cc2)nc2ccc(F)cc2c1C(=O)O [brequinar, 6-fluoro-2-(2′-fluoro-1,1′ biphenyl-4-yl)-3-methyl-4-quinoline carboxylic acid]
- intracellular pyrimidine pool (RNA virus): dramatic decrease in the intracellular pyrimidine pool
- cumulative effect of repeated doses [4]: No cumulative effective of repeated doses
- recommended dose for phase II evaluation, good risk patients [5]: 250 mg/m^2
- recommended dose for phase II evaluation, poor risk patients [5]: 135 mg/m^2
- CC50 [6]: > 50 µM
- Infection: No. of Patients, Max Grade 1 [7]: 4
- Infection: No. of Patients, Max Grade 2 [7]: 3
- Infection: No. of Patients, Max Grade 3 [7]: 0
- Infection: No. of Patients, Max Grade 4 [7]: 0
- CC50 (Vero76 (monkey kidney)): > 50 µM
- CC50 [8]: > 25 µM
- CC50 (H1-HeLa cells [9]): 300 nM
- CC50 [10]: > 25 µM
- CC50 (Vero (monkey kidney)): > 50 µM
- CC50 [11]: > 50 µM
- bioavailability (clinical): > 90%
